Measurements reported in article PMC9025901, “New Genetic Bomb Trigger: Design, Synthesis, Molecular Dynamics Simulation, and Biological Evaluation of Novel BIBR1532-Related Analogs Targeting Telomerase against Non-Small Cell Lung Cancer” (Pharmaceuticals, 2022).

Legend:
IGROV1 = assay: NCI-60 in vitro anticancer screening (SRB); conditions: IGROV1, Ovarian cancer; 10 µM, 48 h
Protocol: (§1) The cancer screening panel’s human tumor 60 cell lines were cultured in the RPMI 1640 medium with (5%) fetal bovine serum and (2 mM) L-glutamine. For a screening experiment, cells were injected onto 96-well microtiter plates (100 µL), with plating densities varying from 5 to 40 × 10^3 cells per well, depending on different cell lines’ doubling times. Before introducing experimental drugs, the microtiter plates were incubated overnight at 37 °C, 95% air, 5% CO2, and 100% relative humidity after cell injection. TCA was employed to keep each cell line in place overnight, resembling a computation of the cell population for every cell line at the time of the addition of the drug. The experimental drugs were chilled after solubilization in DMSO at 400 times the final maximum test concentration. At the moment of the addition of the drug, the aliquot of the frozen concentrate was thawed and diluted to twice the required final maximum concentration with the complete medium containing (50 µg/mL) gentamicin. […] The bound dye was then solubilized with a (10 mM) trizma base, and absorbance was calculated at 515 nm on an automatic reader. […] The % growth of treated cells was established using seven absorbance measurements and compared to untreated control cells [57].

SK-MEL-5 = assay: NCI-60 in vitro anticancer screening (SRB); conditions: SK-MEL-5, Melanoma; 10 µM, 48 h
Protocol: (§2) The cancer screening panel’s human tumor 60 cell lines were cultured in the RPMI 1640 medium with (5%) fetal bovine serum and (2 mM) L-glutamine. For a screening experiment, cells were injected onto 96-well microtiter plates (100 µL), with plating densities varying from 5 to 40 × 10^3 cells per well, depending on different cell lines’ doubling times. Before introducing experimental drugs, the microtiter plates were incubated overnight at 37 °C, 95% air, 5% CO2, and 100% relative humidity after cell injection. TCA was employed to keep each cell line in place overnight, resembling a computation of the cell population for every cell line at the time of the addition of the drug. The experimental drugs were chilled after solubilization in DMSO at 400 times the final maximum test concentration. At the moment of the addition of the drug, the aliquot of the frozen concentrate was thawed and diluted to twice the required final maximum concentration with the complete medium containing (50 µg/mL) gentamicin. The required final concentration of the drug (10 µM) was reached by adding 100 µL aliquots of these definite dilutions of the drug to suitable microtiter wells previously holding a medium of 100 µL. […] The bound dye was then solubilized with a (10 mM) trizma base, and absorbance was calculated at 515 nm on an automatic reader. […]

NCI-H460 = assay: NCI-60 in vitro anticancer screening (SRB); conditions: NCI-H460, Lung cancer (NSCLC); 10 µM, 48 h
Protocol: as §1

OVCAR-3 = assay: NCI-60 in vitro anticancer screening (SRB); conditions: OVCAR-3, Ovarian cancer; 10 µM, 48 h
Protocol: as §1

HS 578T = assay: NCI-60 in vitro anticancer screening (SRB); conditions: Breast cancer, 10 µM, 48 h
Protocol: as §2

HCT-116 = assay: NCI-60 in vitro anticancer screening (SRB); conditions: HCT-116, Colon cancer; 10 µM, 48 h
Protocol: as §1

LOX IMVI = assay: NCI-60 in vitro anticancer screening (SRB); conditions: Melanoma, 10 µM, 48 h
Protocol: as §1

[1] = molecular target: T1, telomerase inside living cancer cells HCC44 (Homo sapiens, UniProt O14746); assay: Living-cell TRAP assay, HCC44; assay type: cell-based; conditions: percent of control cells, 10 µM, 48 h
T1 construct: host or cells: HCC44
Protocol: (§3) The Telomeric Repeat Amplification Protocol (TRAP) [61] was used to evaluate the activity of telomerase, with some changes that we have previously described [62, 63]. A549 cells (human epithelial cell lung carcinoma, ATCC, Manassas, VA) were lysed in (10 mM) Tris-HCl, pH 7.5, (1 mM) EGTA, (1 mM) MgCl2, (5 mM) 2-mercaptoethanol, (0.1 mM) PMSF, (0.5%) CHAPS, and (10%) glycerol (Sigma-Aldrich, St. Louis, MO, USA) and centrifugation. The supernatants were kept at -80 °C. The BCA-1 Protein Assay Kit was used to assess the protein concentration in cell extracts (Sigma-Aldrich, St. Louis, MO, USA). […] To inactivate telomerase, the cells were elongated for 30 min at 37 °C and 10 min at 96 °C. Copy CX-primer was added to the elongation mixture along with 0.1 μL ([NT]) and 2.5 units Taq-polymerase, followed by the following PCR: 94 °C for 5 min; 30 cycles of 94 °C for 30 s, 50 °C for 30 s, and 72 °C for 40 s, and 72 °C for 5 min. TBE buffer and (12%) nondenaturing PAAG electrophoresis were used to visualize the PCR product. 10 μL of each sample was placed in each well of gel comb. The gels were stained with the SYBR Green I (Invitrogen, Grand Island, NY, USA), then photographed under the UV light in ChemiDocTM XRS imaging system and analyzed with GelAnalyzer 2010.

HL-60(TB) = assay: NCI-60 in vitro anticancer screening (SRB); assay type: cell-based, human; conditions: Leukemia, 10 µM, 48 h
SF-295 = assay: NCI-60 in vitro anticancer screening (SRB); conditions: SF-295, CNS cancer; 10 µM, 48 h
Protocol: as §1

DU-145 = assay: NCI-60 in vitro anticancer screening (SRB); conditions: DU-145, Prostate cancer; 10 µM, 48 h
Protocol: as §1

OVCAR-5 = assay: NCI-60 in vitro anticancer screening (SRB); conditions: OVCAR-5, Ovarian cancer; 10 µM, 48 h
Protocol: as §1

NCI-H322M = assay: NCI-60 in vitro anticancer screening (SRB); conditions: Lung cancer (NSCLC), 10 µM, 48 h
Protocol: as §1

RXF 393 = assay: NCI-60 in vitro anticancer screening (SRB); conditions: RXF 393, Renal cancer; 10 µM, 48 h
Protocol: as §2

UACC-257 = assay: NCI-60 in vitro anticancer screening (SRB); conditions: UACC-257, Melanoma; 10 µM, 48 h
Protocol: as §1

[2] = molecular target: T2, telomerase inside living cancer cells NCI-H23 (Homo sapiens, UniProt O14746); assay: Living-cell TRAP assay, NCI-H23; assay type: cell-based; conditions: percent of control cells, 10 µM, 48 h
T2 construct: host or cells: NCI-H23
Protocol: as §3

K-562 = assay: NCI-60 in vitro anticancer screening (SRB); conditions: K-562, Leukemia; 10 µM, 48 h
Protocol: as §1

SW-620 = assay: NCI-60 in vitro anticancer screening (SRB); conditions: SW-620, Colon cancer; 10 µM, 48 h
Protocol: as §1

MCF7 = assay: NCI-60 in vitro anticancer screening (SRB); conditions: MCF7, Breast cancer; 10 µM, 48 h
Protocol: as §2

T-47D = assay: NCI-60 in vitro anticancer screening (SRB); conditions: Breast cancer, 10 µM, 48 h
Protocol: as §2

SK-MEL-28 = assay: NCI-60 in vitro anticancer screening (SRB); conditions: SK-MEL-28, Melanoma; 10 µM, 48 h
Protocol: as §2

SR = assay: NCI-60 in vitro anticancer screening (SRB); conditions: Leukemia, 10 µM, 48 h
Protocol: as §1

HOP-62 = assay: NCI-60 in vitro anticancer screening (SRB); conditions: HOP-62, Lung cancer (NSCLC); 10 µM, 48 h
Protocol: as §1

HOP-92 = assay: NCI-60 in vitro anticancer screening (SRB); conditions: HOP-92, Lung cancer (NSCLC); 10 µM, 48 h
Protocol: as §1

U251 = assay: NCI-60 in vitro anticancer screening (SRB); conditions: U251, CNS cancer; 10 µM, 48 h
Protocol: as §1

786-0 = assay: NCI-60 in vitro anticancer screening (SRB); conditions: 786-0, Renal cancer; 10 µM, 48 h
Protocol: as §1

TK-10 = assay: NCI-60 in vitro anticancer screening (SRB); conditions: TK-10, Renal cancer; 10 µM, 48 h
Protocol: as §1

ACHN = assay: NCI-60 in vitro anticancer screening (SRB); conditions: Renal cancer, 10 µM, 48 h
Protocol: as §2

HT29 = assay: NCI-60 in vitro anticancer screening (SRB); conditions: HT29, Colon cancer; 10 µM, 48 h
Protocol: as §1

RPMI-8226 = assay: NCI-60 in vitro anticancer screening (SRB); conditions: RPMI-8226, Leukemia; 10 µM, 48 h
Protocol: as §1

T1 sequence (O14746 whole entry): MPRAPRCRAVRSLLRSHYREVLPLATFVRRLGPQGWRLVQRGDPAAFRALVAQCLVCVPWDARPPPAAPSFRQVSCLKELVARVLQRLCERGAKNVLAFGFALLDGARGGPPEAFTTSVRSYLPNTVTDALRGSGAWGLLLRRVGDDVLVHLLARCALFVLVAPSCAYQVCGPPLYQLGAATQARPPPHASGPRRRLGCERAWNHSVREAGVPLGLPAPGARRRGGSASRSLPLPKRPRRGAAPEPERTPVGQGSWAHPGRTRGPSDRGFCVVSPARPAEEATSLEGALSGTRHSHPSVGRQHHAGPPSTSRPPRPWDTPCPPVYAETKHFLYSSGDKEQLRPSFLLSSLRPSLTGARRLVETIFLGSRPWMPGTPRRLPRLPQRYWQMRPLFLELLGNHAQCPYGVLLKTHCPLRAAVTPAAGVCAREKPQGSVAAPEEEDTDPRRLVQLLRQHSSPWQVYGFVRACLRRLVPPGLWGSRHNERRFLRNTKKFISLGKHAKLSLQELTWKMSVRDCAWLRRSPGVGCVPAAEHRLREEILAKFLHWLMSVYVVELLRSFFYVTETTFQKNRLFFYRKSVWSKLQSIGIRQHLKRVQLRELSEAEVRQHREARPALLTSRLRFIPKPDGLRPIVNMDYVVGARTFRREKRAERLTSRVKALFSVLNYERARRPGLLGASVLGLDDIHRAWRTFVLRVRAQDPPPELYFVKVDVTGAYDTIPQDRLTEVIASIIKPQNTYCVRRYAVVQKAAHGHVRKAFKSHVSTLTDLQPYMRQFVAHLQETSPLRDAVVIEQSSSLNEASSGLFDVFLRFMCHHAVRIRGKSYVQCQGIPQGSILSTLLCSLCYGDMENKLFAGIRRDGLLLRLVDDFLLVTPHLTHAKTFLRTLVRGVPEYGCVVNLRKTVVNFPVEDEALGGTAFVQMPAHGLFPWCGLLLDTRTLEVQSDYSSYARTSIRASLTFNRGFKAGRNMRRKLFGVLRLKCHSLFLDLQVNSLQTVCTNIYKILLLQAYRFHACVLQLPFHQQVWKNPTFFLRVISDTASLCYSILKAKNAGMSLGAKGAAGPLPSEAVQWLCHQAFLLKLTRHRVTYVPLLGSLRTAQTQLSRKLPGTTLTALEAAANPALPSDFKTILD
T1 sequence (O60832 whole entry partner): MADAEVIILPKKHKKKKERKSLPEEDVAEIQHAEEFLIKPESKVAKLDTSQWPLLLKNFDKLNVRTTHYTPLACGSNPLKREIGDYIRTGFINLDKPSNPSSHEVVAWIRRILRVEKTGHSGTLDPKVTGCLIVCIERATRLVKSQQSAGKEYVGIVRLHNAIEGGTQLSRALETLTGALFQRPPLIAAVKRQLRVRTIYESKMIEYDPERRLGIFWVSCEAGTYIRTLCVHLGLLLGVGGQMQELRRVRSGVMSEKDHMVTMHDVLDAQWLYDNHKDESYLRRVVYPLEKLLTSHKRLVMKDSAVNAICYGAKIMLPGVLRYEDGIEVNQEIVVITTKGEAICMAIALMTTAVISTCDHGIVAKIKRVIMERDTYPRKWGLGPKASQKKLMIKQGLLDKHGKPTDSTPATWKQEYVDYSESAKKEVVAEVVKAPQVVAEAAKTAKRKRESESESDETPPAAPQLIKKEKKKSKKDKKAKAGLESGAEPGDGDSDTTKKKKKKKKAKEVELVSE
T1 sequence (Q9NX24 whole entry partner): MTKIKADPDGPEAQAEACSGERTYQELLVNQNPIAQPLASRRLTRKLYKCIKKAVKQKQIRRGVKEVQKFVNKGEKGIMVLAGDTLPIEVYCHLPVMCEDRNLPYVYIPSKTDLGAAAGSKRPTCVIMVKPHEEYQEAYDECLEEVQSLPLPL
T1 sequence (Q9NPE3 whole entry partner): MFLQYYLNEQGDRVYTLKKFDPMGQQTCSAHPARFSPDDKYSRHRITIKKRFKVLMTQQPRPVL
T1 sequence (Q9NY12 whole entry partner): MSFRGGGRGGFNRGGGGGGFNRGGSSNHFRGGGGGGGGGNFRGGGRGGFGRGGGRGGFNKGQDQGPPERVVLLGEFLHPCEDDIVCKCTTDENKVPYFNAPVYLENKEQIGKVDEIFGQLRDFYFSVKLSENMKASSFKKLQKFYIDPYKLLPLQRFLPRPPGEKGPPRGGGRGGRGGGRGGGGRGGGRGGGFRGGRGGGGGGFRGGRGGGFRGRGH
T1 sequence (Q9BUR4 whole entry partner): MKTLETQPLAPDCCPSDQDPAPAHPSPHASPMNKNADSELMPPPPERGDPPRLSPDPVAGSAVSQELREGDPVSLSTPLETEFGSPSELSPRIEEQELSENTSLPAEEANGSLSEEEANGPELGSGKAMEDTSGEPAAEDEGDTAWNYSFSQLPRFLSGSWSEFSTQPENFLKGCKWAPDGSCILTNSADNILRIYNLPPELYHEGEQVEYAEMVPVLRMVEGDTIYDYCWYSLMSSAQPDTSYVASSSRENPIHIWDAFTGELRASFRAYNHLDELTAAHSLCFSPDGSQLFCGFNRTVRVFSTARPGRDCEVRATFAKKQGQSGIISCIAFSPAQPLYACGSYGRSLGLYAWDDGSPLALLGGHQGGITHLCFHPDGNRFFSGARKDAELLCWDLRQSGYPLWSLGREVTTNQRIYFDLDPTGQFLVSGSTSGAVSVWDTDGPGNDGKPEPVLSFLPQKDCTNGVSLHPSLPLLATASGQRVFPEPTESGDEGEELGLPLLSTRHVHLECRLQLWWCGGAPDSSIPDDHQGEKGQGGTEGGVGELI
T2 sequence (O14746 whole entry): as the sequence (O14746 whole entry) above
T2 sequence (O60832 whole entry partner): as the sequence (O60832 whole entry partner) above
T2 sequence (Q9NX24 whole entry partner): as the sequence (Q9NX24 whole entry partner) above
T2 sequence (Q9NPE3 whole entry partner): as the sequence (Q9NPE3 whole entry partner) above
T2 sequence (Q9NY12 whole entry partner): as the sequence (Q9NY12 whole entry partner) above
T2 sequence (Q9BUR4 whole entry partner): as the sequence (Q9BUR4 whole entry partner) above

Q: For `N#C/C(=C\c1ccc2ccccc2c1)C(=O)Nc1sc2c(c1C#N)CCCC2` [Compound 36b, (2E)-2-Cyano-N-(3-cyano-4,5,6,7-tetrahydro-1-benzothiophen-2-yl)-3-(naphthalen-2-yl)prop-2-enamide], which “Growth Percent” value (IGROV1) is on record?
A: The value was 103.06%.

Q: What about the “Growth Percent” value (SK-MEL-5) of the same compound?
A: The value was 97.65%.

Q: And the “Growth Percent” value (NCI-H460)?
A: The value was 102.88%.

Q: And the “Growth Percent” value (OVCAR-3)?
A: Its value is 98.78%.

Q: What about the “Growth Percent” value (HS 578T) of the same compound?
A: Its value is 103.54%.

Q: And the “Growth Percent” value (HCT-116)?
A: The value was 100.18%.

Q: What about the “Growth Percent” value (LOX IMVI) of the same compound?
A: Its value is 102.88%.

Q: And the “% Telomerase Activity in Cancer Cells” value [1]?
A: Its value is 54.4 ± 4.4%.

Q: And the “Growth Percent” value (HL-60(TB))?
A: Its value is 99.47%.

Q: And the “Growth Percent” value (SF-295)?
A: The value was 95.53%.

Q: What about the “Growth Percent” value (DU-145) of the same compound?
A: The value was 99.89%.

Q: And the “Growth Percent” value (OVCAR-5)?
A: The value was 104.98%.

Q: What about the “Growth Percent” value (NCI-H322M) of the same compound?
A: Its value is 98.58%.

Q: And the “Growth Percent” value (RXF 393)?
A: The value was 111.16%.

Q: What about the “Growth Percent” value (UACC-257) of the same compound?
A: Its value is 102.32%.

Q: What about the “% Telomerase Activity in Cancer Cells” value [2] of the same compound?
A: Its value is 25.1 ± 3.2%.

Q: And the “Growth Percent” value (K-562)?
A: Its value is 99.98%.

Q: What about the “Growth Percent” value (SW-620) of the same compound?
A: Its value is 103.69%.

Q: And the “Growth Percent” value (MCF7)?
A: The value was 92.41%.

Q: And the “Growth Percent” value (T-47D)?
A: The value was 97.26%.

Q: And the “Growth Percent” value (SK-MEL-28)?
A: The value was 102.31%.

Q: What about the “Growth Percent” value (SR) of the same compound?
A: Its value is 95.72%.

Q: And the “Growth Percent” value (HOP-62)?
A: Its value is 98.36%.

Q: What about the “Growth Percent” value (HOP-92) of the same compound?
A: The value was 90.75%.

Q: And the “Growth Percent” value (U251)?
A: The value was 98.73%.

Q: And the “Growth Percent” value (786-0)?
A: Its value is 101.2%.

Q: And the “Growth Percent” value (TK-10)?
A: The value was 113.35%.

Q: And the “Growth Percent” value (ACHN)?
A: The value was 103.29%.

Q: What about the “Growth Percent” value (HT29) of the same compound?
A: The value was 112.60%.

Q: What about the “Growth Percent” value (RPMI-8226) of the same compound?
A: The value was 99.85%.
